# Reference: BindingDB's records for patent US20240116922 (Biogen Ma, 2024)
# Target: T1, Interleukin-1 receptor-associated kinase 4 (Homo sapiens, UniProt Q9NWZ3)
# T1 sequence (Q9NWZ3 whole entry): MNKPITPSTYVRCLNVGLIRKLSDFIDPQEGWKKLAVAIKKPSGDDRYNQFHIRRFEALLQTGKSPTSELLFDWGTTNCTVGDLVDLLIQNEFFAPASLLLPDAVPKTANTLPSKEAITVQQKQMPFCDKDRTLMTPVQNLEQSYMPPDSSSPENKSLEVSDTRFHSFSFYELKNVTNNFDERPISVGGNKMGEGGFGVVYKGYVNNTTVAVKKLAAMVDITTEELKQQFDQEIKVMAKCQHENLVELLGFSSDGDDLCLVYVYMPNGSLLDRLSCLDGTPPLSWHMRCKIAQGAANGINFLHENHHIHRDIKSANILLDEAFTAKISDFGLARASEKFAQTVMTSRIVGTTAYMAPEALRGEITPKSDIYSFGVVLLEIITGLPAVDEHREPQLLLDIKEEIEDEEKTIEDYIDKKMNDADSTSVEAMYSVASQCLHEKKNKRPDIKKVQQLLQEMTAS
# Test: Biochemical Assay
# Procedure: The 2-hour 1 mM ATP Biochemical Assay employed a MesoScale Detection (MSD) format. […] After a 1 hour incubation of the plate for 1 hour at room temperature with gentle mixing, the plate wells were washed 3 times with 50 mM Tris, pH 7.5, 150 mM NaCl, 0.02% Tween-20.A 25 μl volume of 1:500 anti-P-Threonine Rabbit polyclonal Antibody plus 1:500 Goat-anti-Rabbit Sulfo Tag Antibody (Meso Scale Discovery R32AB-1) in 50 mM Tris, pH 7.5, 150 mM NaCl, 0.02% Tween-20 plus 2% BSA was then added to each well. After a 1-hour incubation of the plate for 1 hour at room temperature with gentle mixing, the plate wells were washed, 3 times with 50 mM Tris, pH 7.5, 150 mM NaCl, 0.02% Tween-20.
row,Compound,IC50 [nM]
1,"CC[C@H](C)Oc1cc2nc(C34COC(C)(C3)C4)cn2cc1C(=O)Nc1cccn([C@@H]2C[C@@H]2F)c1=O (mixture of isomers) [US20240116922, Example 96]",0.2
2,"CC(C)Oc1cc2nc(C34COC(C)(C3)C4)cn2cc1C(=O)Nc1ccnn(C2CC2)c1=O [US20240116922, Example 76]",1.6
3,"CC[C@H](C)Oc1nc2nc(C34COC(C)(C3)C4)cn2cc1C(=O)Nc1cccn([C@@H]2C[C@@H]2F)c1=O (mixture of isomers) [US20240116922, Example 42]",0.3
